Measurements taken from patent US8129121B2, “Regulation of lipid droplet formation by modulation of FIT1 and FIT2 and uses thereof” (Albert Einstein College of Medicine of Yeshiva University, priority 2007, dated 2012).

Columns and labels:
NIH-3T3 L1 adipocytes = assay: Lentivirus shRNA knockdown of FIT2 in NIH-3T3 L1 cells during adipogenesis: lipid droplets, differentiation markers, TG biosynthesis, lipolysis; type: cell-based, mouse
Source text: (§1) FIG. 4A-4C. shRNAi mediated knockdown of FIT2. NIH-3T3 or RAW246.7 cells were infected with lentivirus expressing shRNA sequence targeting murine FIT2 (FIT2shRNA), or control shRNA (contshRNA), or no lentivirus (control). (A) FIT2shRNA reduced lipid droplet formation during NIH-3T3 cell differentiation (days of differentiation are shown above image) as visualized by BODIPY493/503 staining. […] Expression of differentiation markers Apt and PPARgamma, were not changed in FIT2shRNA treated cells compared to controls.
FIG. 11A-11B. Triglyceride biosynthesis and lipolysis assays in FIT2 knockdown cells. (A) Triglyceride synthesis measurements were performed at each time point during differentiation using ^14C glycerol and TLC analysis of triglyceride levels quantified by PhosphorImager analysis. Each time point contained 3 independent samples for each condition, and represented as mean±std, p<0.001. […] (B) Lipolysis assays performed on cell lysates from NIH 3T3-L1 cells at day 4 and day 6 of differentiation. No differences were observed between control and shRNAcont and FIT2shRNA adipocytes.
Cell culture. HEK293, and HeLa cells were grown in DMEM 10% FBS. NIH-3T3 L1 adipocytes were a kind gift from Philip Scherer and grow and differentiated by standard methods (24).
Triglyceride biosynthesis and DGAT assays. Cells in culture were incubated with 7.5 μCi/mL of 14C-glycerol (Specific activity: 125-180 mCi/mmol, NEN-Amersham) for the indicated times, followed by extraction with HIP and separation by TLC as referenced above. Radioactive triglycerides were quantified using PhosphorImager analysis and represented as a rate of triglyceride production using arbitrary units obtained from PhosphorImager analysis.
Lipase activity assay. Total cellular lipase activity was measured using the established method of Holm and Osterlund in Methods in Molecular Biology 1999; 109, p 109-121.
(§2) Double stranded shRNA DNAs were used to generate lentiviruses using the U6 promoter driven BLOCK-iT Lentivirus RNAi expression system (Invitrogen Corporation). Knockdown of human FIT2 in HEK293 cells was performed by stably transfection using pEntryU6 vector (Invitrogen Corp). NIH-3T3 L1 pre-adipocytes and HepG2 cells were infected with an MOI of 10-50.
(§3) shRNA suppression of FIT2 abolishes lipid droplet formation during adipogenesis. To provide a direct test if FIT proteins are essential for the formation of lipid droplets, knockdown of FIT expression was sought in established cellular models of lipid droplet formation. […]

FIT2 = assay: Lentivirus shRNA knockdown of FIT2 in NIH-3T3 L1 cells, FIT2 mRNA and protein; type: cell-based, mouse; settings: adipocytes infected with lentivirus, vs control shRNA or no virus
Source text: as §1
Lentivirus shRNA. The following short hairpin RNA (shRNA) sequences (sense strand shown) were used to knockdown mouse FIT2 expression: shRNAcont, […] (SEQ ID NO:20); shRNAFIT2, (SEQ ID NO:21) […].
as §2, §3

FIT2 shRNA: lentivirus-expressed short hairpin RNA targeting murine FIT2, SEQ ID NO:21 (CACCGCACCATGTTTGGTTTGTTGGCGAACCAACAAACCAAACATGGTGC)
Triglyceride biosynthesis (NIH-3T3 L1 adipocytes; 14C glycerol, TLC, knockdown adipocytes compared to controls): similar | lipid droplets (NIH-3T3 L1 adipocytes; BODIPY493/503 staining, pre-adipocytes (day 0) and mature adipocytes (day 4 to 9)): almost complete absence of lipid droplets | expression of PPARgamma and AP2 (markers of adipocyte differentiation) (NIH-3T3 L1 adipocytes; FIT2 suppressed cells, Northern blot): not changed | triglyceride lipase activities (NIH-3T3 L1 adipocytes; cell lysates at day 4 and day 6 of differentiation, compared to controls): similar | FIT2 mRNA (FIT2; Northern blot): significantly suppressed | FIT2 protein (FIT2; Western blot): significantly suppressed
